The values below come from patent US20200069644A1, “NOVEL USE OF A FORMYL PEPTIDE RECEPTOR 2/ LIPOXIN A4 RECEPTOR (FPR2/ALX) AGONIST FOR TREATMENT OF HEART FAILURE” (BRISTOL- MYERS SQUIBB COMPANY, priority 2017, published 2020).

For assay [1], the system named is Rat FPR2. As to the kind of experiment: cAMP inhibition, rat FPR2 CHO cells. Type of assay: cell-based. The settings on record: CHO cell lines, cAMP.
The target in assay [2] is Rat FPR2 (Rattus norvegicus, UniProt A0A8I6AM80). Briefly: cAMP inhibition, rat FPR2 CHO cells. Type of assay: cell-based. The note with it: Rat FPR2.
Assay [3] has as its system myocardial infarction in rats. Briefly: Rat model of permanent coronary artery occlusion, 6 weeks. Type of assay: in vivo. How it is done: In a second model of myocardial infarction, permanent coronary artery occlusion was carried out in rats using a ligature placed around the left anterior descending artery to induce myocardial infarction. Treatment with orally-administered Compound 1 (0.01, 0.1, 1, and 10 mg/kg, QD) or dosing solution without compound (QD, referred to as vehicle) was initiated 48 hours following myocardial infarction. Rats subjected to thoracotomy but not infarcted were included as surgical “sham” controls. Rats were evaluated 6 weeks following myocardial infarction to assess structure/function relationships. Hearts were removed from rats for histological processing to measure infarct wall thickness and collagen composition. Echocardiography was carried out to evaluate cardiac function.
The effects of Compound 1 on left ventricle and infarct scar remodeling were evaluated in a rat model of permanent coronary artery occlusion. […] In addition, the effect of Compound 1 on cardiac function was measured by echocardiography to assess structure/function relationships. The structure of the myocardial wall was measured histologically. […]
Echocardiography was used to measure cardiac function at the end of the treatment phase. The fraction of blood pumped out of the left ventricle per contraction cycle (i.e., ejection fraction) was determined using M-mode echocardiography. […]

For the next assay, the target named is T1, Mouse FPR2 (Mus musculus, UniProt O88536).
T1 construct: expressed in transfected cells; host or cells: CHO-A12
T1 sequence (O88536 1-351): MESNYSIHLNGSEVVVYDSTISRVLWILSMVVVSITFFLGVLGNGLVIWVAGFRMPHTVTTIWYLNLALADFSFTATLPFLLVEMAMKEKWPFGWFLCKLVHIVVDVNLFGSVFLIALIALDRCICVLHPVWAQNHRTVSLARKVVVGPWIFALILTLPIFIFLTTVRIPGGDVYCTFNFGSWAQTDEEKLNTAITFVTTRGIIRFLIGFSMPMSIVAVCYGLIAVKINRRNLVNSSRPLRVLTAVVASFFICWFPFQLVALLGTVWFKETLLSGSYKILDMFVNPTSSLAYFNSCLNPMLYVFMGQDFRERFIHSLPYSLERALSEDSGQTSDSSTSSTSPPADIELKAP
As to the kind of experiment: cAMP inhibition, mouse FPR2/CHO-A12. Type of assay: cell-based. Here is the method: [Worded in the source for another species; this species is reported under the same test.] A mixture of forskolin (5 μM final for FPR2 or 10 μM final for FPR1) and IBMX (200 μM final) were added to 384-well Proxiplates (Perkin-Elmer) pre-dotted with test compounds in DMSO (1% final) at final concentrations in the range of 0.1 nM to 10 μM. CHO overexpressing human FPR1 or human FPR2 receptors were cultured in F-12 (Ham's) medium supplemented with 10% qualified FBS, 250 μg/ml zeocin and 300 μg/ml hygromycin (Life Technologies). Reactions were initiated by adding 2,000 human FPR2 cells per well or 4,000 human FPR1 cells per well in Dulbecco's PBS (with calcium and magnesium) (Life Technologies) supplemented with 0.1% BSA (Perkin-Elmer). The reaction mixtures were incubated for 30 min at room temperature. The level of intracellular cAMP was determined using the HTRF HiRange cAMP assay reagent kit (Cisbio) according to manufacturer's instruction. Solutions of cryptate conjugated anti-cAMP and d2 flurorophore-labelled cAMP were made in a supplied lysis buffer separately. […] After a 1 h room temperature incubation, time-resolved fluorescence intensity was measured using the Envision (Perkin-Elmer) at 400 nm excitation and dual emission at 590 nm and 665 nm. […] The potency and activity of Compound 1 to inhibit cAMP production was then determined by fitting to a 4-parametric logistic equation from a plot of cAMP level versus compound concentrations. […]

pEC50: −log10 of the molar value.

Sequence of Rat FPR2 (Rattus norvegicus, UniProt A0A8I6AM80) (A0A8I6AM80 1-351): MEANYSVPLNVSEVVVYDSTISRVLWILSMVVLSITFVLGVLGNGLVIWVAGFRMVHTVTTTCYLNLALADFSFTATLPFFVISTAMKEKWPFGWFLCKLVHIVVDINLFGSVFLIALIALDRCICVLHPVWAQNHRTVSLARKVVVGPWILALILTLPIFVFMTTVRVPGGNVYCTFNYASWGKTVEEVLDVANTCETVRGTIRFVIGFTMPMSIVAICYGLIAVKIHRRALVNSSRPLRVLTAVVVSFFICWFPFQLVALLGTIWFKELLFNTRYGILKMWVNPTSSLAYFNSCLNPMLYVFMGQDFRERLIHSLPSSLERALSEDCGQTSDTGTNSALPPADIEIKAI

As a reminder, the pEC50 is −log10 of the EC50, conventionally taken in molar units. Read a high pEC50 as a small EC50. Regarding `COc1cc(F)c([C@@H]2CNC(=O)[C@H]2NC(=O)Nc2ccccc2)c(F)c1` [Compound 1, 1-((3S,4R)-4-(2,6-difluoro-4-methoxyphenyl)-2-oxopyrrolidin-3-yl)-3-phenylurea], in the assay on Rat FPR2 [1], the “selectivity for rat FPR2 vs. FPR1” value is 480 fold. Also, the negative logarithm of the EC50 (pEC50) at Rat FPR2 [2] is 8.82; on Mouse FPR2 (Mouse FPR2/CHO-A12) it was 9.22. Moreover, the contralateral wall thickness result in assay [3] (0.01-10 mg/kg, between treatment groups or sham) is given as “No changes”. In addition, the “transmural infarct wall thickness, increase relative to vehicle” value in assay [3] (10 mg/kg PO QD, started 48 h after MI, P<0.01) is reported as 96%. In addition, the “selectivity for mouse FPR2 vs. FPR1” value on Mouse FPR2 (CHO cell lines, cAMP) amounted to 640 fold.
